From patent publication US8324219B2, “Substituted benzoimidazolyl-pyrazine compounds for inflammation and immune-related uses” (Synta Pharmaceuticals Corp., priority 2007, dated 2012) come the findings set out here.

Structures are written as SMILES. Where a name gives a salt, the structure may show the parent alone.

This test concerns IL-2 production. The test is described as follows: Inhibition of IL-2 production in PHA-activated Jurkat cells (ELISA). The test is classed as cell-based. To be noted: Homo sapiens, PHA 2.5 μg/mL. How it is done:
Jurkat cells were placed in a 96 well plate (0.5 million cells per well in 1% FBS medium) then a test compound of this invention was added at different concentrations. After 10 minutes, the cells were activated with PHA (final concentration 2.5 μg/mL) and incubated for 20 hours at 37° C. under CO2. The final volume was 200 μL. Following incubation, the cells were centrifuged and the supernatants were collected and stored at −70° C. prior to assaying for IL-2 production. A commercial ELISA kit (IL-2 Eli-pair, Diaclone Research, Besancon, France) was used to detect production of IL-2, from which dose response curves were obtained. The IC50 value was calculated as the concentration at which 50% of maximum IL-2 production after stimulation was inhibited versus a non-stimulation control.
For orientation: An ELISA detects its analyte on a solid surface through an enzyme-linked reagent.

Broadly, the IC50 is the midpoint of a concentration-inhibition curve. Low values mean inhibition by little substance, high ones a need for much substance. `O=C(Nc1cnc(-n2c(C(F)(F)F)nc3cc(O)ccc32)cn1)c1c(F)cccc1F` [Compound 1, 2,6-Difluoro-N-[5-(5-hydroxy-2-trifluoromethyl-benzoimidazol-1-yl)-pyrazin-2-yl]-benzamide]: the IC50 (20 hours) stood at 34 nM.

`O=C(Nc1cnc(-n2c(C(F)(F)F)nc3cc([N+](=O)[O-])ccc32)cn1)c1c(F)cccc1F` [Compound 2, 2,6-Difluoro-N-[5-(5-nitro-2-trifluoromethyl-benzoimidazol-1-yl)-pyrazin-2-yl]-benzamide] came in with an IC50 (20 hours) of 89 nM.

Compound `COc1ccc2c(c1)nc(C)n2-c1cnc(NC(=O)c2c(F)cccc2F)cn1` [Compound 3, 2,6-Difluoro-N-[5-(5-methoxy-2-methyl-benzoimidazol-1-yl)-pyrazin-2-yl]-benzamide] gave an IC50 (20 hours) of 102 nM. This IC50 and that of the compound before are within 1.5-fold of each other.

Take `O=C(Nc1cnc(-n2c(C(F)(F)F)nc3cc(O)ccc32)cn1)c1c(F)cccc1F` [Compound 4, 2,6-Difluoro-N-[5-(5-hydroxy-2-trifluoromethyl-benzoimidazol-1-yl)-pyrazin-2-yl]-benzamide, sodium salt]: for the setting “Jurkat, 20 h”, the IC50 amounted to 14 nM.

Compound `CN(C)c1ccc2c(c1)nc(C(F)(F)F)n2-c1cnc(NC(=O)c2c(F)cccc2F)cn1` [Compound 5, N-[5-(5-Dimethylamino-2-trifluoromethyl-benzoimidazol-1-yl)-pyrazin-2-yl]-2,6-difluoro-benzamide] had an IC50 (20 hours) of 29 nM.

Regarding `Nc1ccc2c(c1)nc(C(F)(F)F)n2-c1cnc(NC(=O)c2c(F)cccc2F)cn1` [Compound 6, N-[5-(5-Amino-2-trifluoromethyl-benzoimidazol-1-yl)-pyrazin-2-yl]-2,6-difluoro-benzamide], where the note is “20 hours”, inhibition was half-maximal at 97 nM (IC50).

`O=C(Nc1cnc(-n2c(C(F)(F)F)nc3cc(-c4nnco4)ccc32)cn1)c1c(F)cccc1F` [Compound 8, 2,6-Difluoro-N-[5-(5-[1,3,4]oxadiazol-2-yl-2-trifluoromethyl-benzoimidazol-1-yl)-pyrazin-2-yl]-benzamide]: for the setting “20 hours”, the IC50 came out at 39 nM.

For the compound `Cc1nnc(-c2ccc3c(c2)nc(C(F)(F)F)n3-c2cnc(NC(=O)c3c(F)cccc3F)cn2)o1` [Compound 9, 2,6-Difluoro-N-{5-[5-(5-methyl-[1,3,4]oxadiazol-2-yl)-2-trifluoromethyl-benzoimidazol-1-yl]-pyrazin-2-yl}-benzamide], for the setting “20 hours”, the IC50 worked out at 84 nM.
